Tested on: rumen liquor
Assay: In vitro test for methane production (modified Hohenheim Forage value Test, HFT)
Format: cell-based
Conditions: TMR feed, 8 h at 39° C.
Method: In vitro test for methane production: A modified version of the “Hohenheim Forage value Test (HFT)” was used for testing the effect of specific compounds on the rumen functions mimicked by this in-vitro system.
Principle: Feed is gadded into a syringe with a composition of rumen liquor and an appropriate mixture of buffers. The solution is incubated at 39° C. After 8 hours the quantity (and composition) of gas phase produced is measured and put into a formula for conversion.
Sample weighing: The feed stuff (i.e. TMR (44% concentrate, 6% hay, 37% maize silage and 13% grass silage) is sieved to 1 mm and weighed exactly into 64 syringes. 4 of these syringes are the substrate controls, which display the gas production without the effect of the tested compounds. 4 other syringes are positive control (3-NOP, 10 μM). When needed, 4 syringes contain a carrier control (if the test compounds need a carrier). The remaining syringes contain the test substances, by groups of 4 syringes, in the amounts as indicated in table 1.
• The components are mixed in a Woulff bottle in following order: • 711 ml water • 0.18 ml trace element solution • 355.5 ml buffer solution • 355.5 ml mass element solution • The completed solution is warmed up to 39° C. followed by the addition of 1.83 ml sodium salt solution and the addition of reduction solution at 36° C. The rumen liquor is added, when the indicator turns colourless.
Extraction of the rumen liquor: 750 ml of rumen liquor are added to approximately 1,400 ml of medium solution under continued agitation and CO2-gassing.
Filling the syringes, incubation and determining gas volumes and VFA values: The diluted rumen fluid (24 ml) is added to the glass syringe. The syringes are then incubated for 8 hours at 39° C. under gentle agitation. After 8 hours, the volume of gas produced is measured, and the percentage of methane in the gas phase is determined by gas chromatography.
The food fermented was artificial TMR (44% concentrate, 6% hay, 37% maize silage and 13% grass silage). Gossypol was obtained from Sigma-Aldrich (G8761), and used at a concentration as outlined in table 1. 3-Nitrooxy-propanol (3-NOP) was used at the concentration as outlined in table 1.

Cc1cc2c(C(C)C)c(O)c(O)c(C=O)c2c(O)c1-c1c(C)cc2c(C(C)C)c(O)c(O)c(C=O)c2c1O [G, Gossypol]
Total methane change [% vs. control] found (G 5 μM alone): −1 % vs. control | Total methane change [% vs. control] found (G 10 μM alone): −11 % vs. control | Total methane change [% vs. control] found (G 20 μM alone): −15 % vs. control | Total methane change [% vs. control] found (G 100 μM alone): −69 % vs. control

O=[N+]([O-])OCCCO [3-NOP, 3-Nitrooxy-propanol, reference compound]
Total methane change [% vs. control] found (3-NOP 2.5 μM alone): −12 % vs. control | Total methane change [% vs. control] found (3-NOP 5 μM alone): −54 % vs. control | Total methane change [% vs. control] found (3-NOP 10 μM alone): −98 % vs. control

Reference: patent US20240196933A1, “USE OF GOSSYPOL AND A METHANE INHIBITOR FOR REDUCING THE FORMATION OF METHANE EMANATING FROM THE DIGESTIVE ACTIVITIES OF RUMINANTS” (DSM IP ASSETS B.V., priority 2021, published 2024)
